Results reported in the OPERA property sets (Mansouri et al. 2018).

First: O=C(Cc1ccccc1)Nc1cccc([N+](=O)[O-])c1
Second: O=C(Cc1ccccc1)Nc1ccc([N+](=O)[O-])cc1
The logP of the first is lower: 2.93 for the first, 3.18 for the second.

First: N#Cc1cccc(NC(=O)Cc2ccccc2)c1
Second: Nc1cccc(NC(=O)Cc2ccccc2)c1
The logP of the first is higher: 2.75 for the first, 1.59 for the second.

Compared with Nc1ccccc1NC(=O)Cc1ccccc1, O=C(Cc1ccccc1)Nc1ccccc1F is higher in logP: 1.45 for the first, 2.62 for the second.

First: CC(=O)Oc1cccc(NC(=O)Cc2ccccc2)c1
Second: COc1cccc(NC(=O)Cc2ccccc2)c1
The logP of the first is lower: 2.37 for the first, 2.86 for the second.

Compared with O=C(Cc1ccccc1)Nc1ccccc1, O=C(Cc1ccccc1)Nc1ccccc1O is lower in logP: 2.7 for the first, 2.4 for the second.

CCOc1cccc(NC(=O)Cc2ccccc2)c1 and Cc1cccc(NC(=O)Cc2ccccc2)c1 are within 0.2 log units of each other in logP: 3.23 for the first, 3.14 for the second.

First: CC(=O)N(c1ccccc1)c1ccc(C)cc1
Second: CCc1cccc(N(C(C)=O)c2ccccc2)c1
The logP of the first is lower: 3.05 for the first, 3.47 for the second.

O=C(Cc1ccccc1)Nc1ccccc1[N+](=O)[O-] and COc1ccccc1NC(=O)Cc1ccccc1 are within 0.2 log units of each other in logP: 2.73 for the first, 2.68 for the second.

Compared with COc1ccc(NC(=O)Cc2ccccc2)cc1, O=C(Cc1ccccc1)Nc1ccc(O)cc1 is lower in logP: 2.49 for the first, 1.82 for the second.

Going from O=C(Cc1ccccc1)Nc1ccc(F)cc1 to O=C(Cc1ccccc1)Nc1ccc(Br)cc1, the logP rises from 2.86 to 3.7.

Going from O=C(Cc1ccccc1)Nc1cccc(I)c1 to O=C(Cc1ccccc1)Nc1cccc(F)c1, the logP falls from 3.91 to 3.1.

Compared with CCNc1cccc(NC(=O)Cc2ccccc2)c1, CNc1cccc(NC(=O)Cc2ccccc2)c1 is lower in logP: 2.59 for the first, 2.31 for the second.

First: O=C(Cc1ccccc1)Nc1ccc(Cl)cc1
Second: CC(=O)c1ccc(NC(=O)Cc2ccccc2)cc1
The logP of the first is higher: 3.54 for the first, 2.75 for the second.

First: CC(=O)c1cccc(NC(=O)Cc2ccccc2)c1
Second: O=C(Cc1ccccc1)Nc1cccc(O)c1
The logP of the first is higher: 2.62 for the first, 2.22 for the second.

Compared with CS(=O)(=O)Oc1cccc(NC(=O)Cc2ccccc2)c1, O=C(Cc1ccccc1)Nc1cccc(Br)c1 is higher in logP: 2.32 for the first, 3.77 for the second.
